According to patent publication EP1377579B1 (Aventis Pharmaceuticals Inc., priority 2000, dated 2002):
Values joined by “and” are separate entries in the source; they are usually repeats but may differ in a detail not shown here. Identical values can stand only once. Like-named read-outs stand apart in the source and are kept apart here.

Assays:
cdk4/cyclin D1 = cdk4/cyclin D1 (Homo sapiens, UniProt P11802); assay: Cyclin-dependent kinase assay, cdk4/cyclin D1; format: biochemical; details: cyclin D1/cdk4; GST-pRb substrate, 10 µM ATP
MDA-MB-435 = assay: In vitro proliferation assay (MTT), MDA-MB-435; format: cell-based, human; details: Homo sapiens
Procedure, shortened: (§1)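 Cells plated at 1000 to 2500 cells/well, allowed to attach overnight, then exposed to compounds for 3 days. Viable cells estimated by MTT dye, solubilized in DMSO, absorbance at 570 nm; IC50 taken from raw data.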

NCI-H460 = assay: In vitro proliferation assay (MTT), NCI-H460; format: cell-based; details: Homo sapiens
Procedure, shortened: (§2)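 Cells were plated at 1000 to 2500 cells/well and allowed to attach overnight before compound exposure. After 3 days, viable cells were estimated with MTT dye for 2 to 4 hr at 37 C, then solubilized in DMSO and read at 570 nm. IC50s were derived from MTT or SRB raw data.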

Jurkat = assay: In vitro proliferation assay (MTT), Jurkat; format: cell-based; details: Homo sapiens, read-out: Jurkat Leuk. (IC50 µM)
Procedure, shortened: as §2

PC-3 = assay: In vitro proliferation assay (MTT), PC-3; format: cell-based, human; details: Homo sapiens
Procedure, shortened: as §1

[1] = Red blood cell binding, mouse whole blood; format: in vitro ADME; details: 30 minutes at 37°C, 500 ng/ml
Protocol: Compounds, including one positive control, are assessed for red blood cell (RBC) uptake, using a modified procedure based on the protocol reported in Sun, J.X.S., et al. High-performance liquid chromatographic analysis, plasma protein binding and red blood cell partitioning of phenprobamate. Biopharmaceutics and Drug Disposition, 8 (1987) 341-351.
Briefly, RBC uptake is evaluated by comparison of the levels in spiked plasma (n=3) and plasma isolated from spiked whole blood (n=3). Compounds are incubated with human and mouse whole blood, respectively, for 30 minutes at 37°C using a nominal concentration of 500 ng/ml. Following centrifugation, the plasma is removed and submitted for analysis. Each compound is also spiked into blank plasma at a nominal concentration of 500 ng/ml, and submitted for analysis. Levels in the two plasma samples (Cp' and Cp in the equation below) and the blood hematocrit are used to determine the red blood cell to plasma ratio (Crbc/Cp). (Crbc)/(Cp) = (Cpʹ)/(Cp•H)-((1-H))/(H) [formula] In equation 1, Cp' is the level of drug in the spiked "blank" plasma, Cp is the level of drug in the plasma of spiked whole blood, and H is the hematocrit. The hematocrit values are determined as 0.4 for human whole blood and 0.41 for mouse whole blood. The samples are analyzed with ESI LC/MS, using positive ion detection with an internal standard.
The red blood cell to plasma ratio is determined for each compound using equation 1. Tables 6 and 7 summarize the respective mean Crbc/Cp values and standard deviations for mouse and human whole blood, respectively, in descending order based on the red blood cell to plasma ratio, where"*" denotes Positive Control, and "ND" denotes Not Determined. MDL 108552 is included as a positive control for red blood cell uptake. Table 6. Red Blood Cell to Plasma Ratio for compounds in mouse whole blood

Colo-205 = assay: In vitro proliferation assay (MTT), Colo-205; format: cell-based; details: Homo sapiens
Procedure, shortened: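 Colo-205 cells were seeded at 1000–2500 cells/well and allowed to attach overnight, then exposed to compound for 3 days. Viable cells were measured by MTT reduction (2–4 h, 37 °C), with DMSO-solubilised dye read at 570 nm. IC50 was derived from concentration–response data.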

cdk2/cyclin E = cdk2/cyclin E (Homo sapiens, UniProt P24941); assay: Cyclin-dependent kinase assay, cdk2/cyclin E; details: CDK2 IC50, nM, GST-pRb substrate, 10 µM ATP
[2] = MDA-MB-435, MTT assay, value (SD, n) where given, read-out: MB-435 Breast (IC50 µM)
[3] = NCI-H460, MTT assay, value (SD, n) where given, read-out: H-460 Lung (IC50 µM)
[4] = MTT assay, value (SD, n) where given
[5] = PC-3, MTT assay, value (SD, n) where given, read-out: PC-3 Prostate (IC50 µM)
[6] = COLO 205, MTT assay, value (SD, n) where given, read-out: Colo-205 Colon (IC50 µM)
[7] = MDA-MB-435, read-out: MB-435 Breast (IC50 µM)
[8] = NCI-H460, read-out: H-460 Lung (IC50 µM)
[9] = PC-3, read-out: PC-3 Prostate (IC50 µM)
[10] = COLO 205, read-out: Colo-205 Colon (IC50 µM)

Sequence of cdk4/cyclin D1 (P11802 whole entry): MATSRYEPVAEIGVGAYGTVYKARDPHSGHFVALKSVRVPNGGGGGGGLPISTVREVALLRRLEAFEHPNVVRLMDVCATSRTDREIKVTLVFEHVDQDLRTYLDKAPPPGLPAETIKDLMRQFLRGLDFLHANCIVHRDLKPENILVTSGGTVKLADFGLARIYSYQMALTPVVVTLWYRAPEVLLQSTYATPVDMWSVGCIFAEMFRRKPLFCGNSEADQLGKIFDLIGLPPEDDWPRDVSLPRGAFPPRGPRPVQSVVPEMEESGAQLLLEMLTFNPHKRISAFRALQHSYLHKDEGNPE
Sequence of cdk4/cyclin D1 (P24385 whole entry partner): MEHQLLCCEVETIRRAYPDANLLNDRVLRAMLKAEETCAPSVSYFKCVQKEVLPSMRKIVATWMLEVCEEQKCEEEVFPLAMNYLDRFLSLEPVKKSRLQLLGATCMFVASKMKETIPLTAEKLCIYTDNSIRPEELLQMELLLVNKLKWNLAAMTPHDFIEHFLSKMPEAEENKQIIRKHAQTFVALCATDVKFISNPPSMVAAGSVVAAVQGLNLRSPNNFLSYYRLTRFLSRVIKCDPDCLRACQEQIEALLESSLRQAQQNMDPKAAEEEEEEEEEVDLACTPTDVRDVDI

Structure (SMILES) | IC50 (cdk4/cyclin D1) | IC50 (MDA-MB-435; [2]) | IC50 (NCI-H460; [3]) | IC50 (Jurkat; [4]) | IC50 (PC-3; [5]) | Mean Red Blood Cell to Plasma Ratio [1] | IC50 (Colo-205; [6]) | IC50 (cdk2/cyclin E) | IC50 (MDA-MB-435; [7]) | IC50 (NCI-H460; [8]) | IC50 (Jurkat) | IC50 (PC-3; [9]) | Mean Red Blood Cell to Plasma Ratio ([1]; dihydrochloride) | IC50 (Colo-205; [10])
Cl.Cl.N[C@H]1CC[C@H](Nc2nc(NC3CCN(C(=O)c4cccc(C(F)(F)F)c4F)CC3)c3ncn(C4CCCC4)c3n2)CC1 [compound 12, trans-1-{4-[2-(4-Amino-cyclohexylamino)-9-cyclopentyl-9H-purin-6-ylamino]-piperidin-1-yl}-1-(2-fluoro-3-trifluoromethyl-phenyl)-methanone dihydrochloride] | 614 nM | 0.28 µM | 0.38 µM | 0.48 µM | 0.48 µM | 1.9 | 0.21 µM | 5 nM | – | – | – | – | – | –
Cl.Cl.N[C@H]1CC[C@H](Nc2nc(NC3CCN(C(=O)Oc4ccc(Br)cc4)CC3)c3ncn(C4CCCC4)c3n2)CC1 [compound 81, trans-4-[2-(4-Amino-cyclohexylamino)-9-cyclopentyl-9H-purin-6-ylamino]-piperidine-1-carboxylic acid 4-bromo-phenyl ester dihydrochloride] | 67 nM | – | – | – | – | – | – | 39 nM | 0.1 µM | 0.07 µM | 0.1 µM | 0.12 µM | 3.3 and 4.5 | 0.03 µM
COC(=O)c1ccc(OC(=O)N2CCC(Nc3nc(N[C@H]4CC[C@H](N)CC4)nc4c3ncn4C3CCCC3)CC2)cc1.Cl.Cl [compound 83, trans-4-[2-(4-Amino-cyclohexylamino)-9-cyclopentyl-9H-purin-6-ylamino]-piperidine-1-carboxylic acid 4-methoxycarbonyl-phenyl ester dihydrochloride] | 185 nM | – | – | – | – | 112.2 | – | 44 nM | 0.17 µM | 0.07 µM | 0.14 µM | 0.15 µM | – | 0.07 µM
COc1ccc(OC(=O)N2CCC(Nc3nc(N[C@H]4CC[C@H](N)CC4)nc4c3ncn4C3CCCC3)CC2)cc1.Cl.Cl [compound 84, trans-4-[2-(4-Amino-cyclohexylamino)-9-cyclopentyl-9H-purin-6-ylamino]-piperidine-1-carboxylic acid 4-methoxy-phenyl ester dihydrochloride] | 69 nM | – | – | – | – | 3.5 | – | 9 nM | 0.1 µM | 0.07 µM | 0.12 µM | 0.12 µM | – | 0.03 µM
Cl.Cl.N[C@H]1CC[C@H](Nc2nc(NC3CCN(C(=O)Oc4ccc(F)cc4)CC3)c3ncn(C4CCCC4)c3n2)CC1 [compound 87, trans-4-[2-(4-Amino-cyclohexylamino)-9-cyclopentyl-9H-purin-6-ylamino]-piperidine-1-carboxylic acid 4-fluoro-phenyl ester dihydrochloride] | 27 nM | – | – | – | – | 3.4 | – | 42 nM | 0.11 µM | 0.08 µM | 0.2 µM | – | – | 0.16 µM
Cl.Cl.N[C@H]1CC[C@H](Nc2nc(NC3CCN(C(=O)Oc4ccc(Cl)cc4)CC3)c3ncn(C4CCCC4)c3n2)CC1 [compound 88, trans-4-[2-(4-Amino-cyclohexylamino)-9-cyclopentyl-9H-purin-6-ylamino]-piperidine-1-carboxylic acid 4-chloro-phenyl ester dihydrochloride] | 204 nM | – | – | – | – | 3.5 | – | 7 nM | 0.02 µM | 0.06 µM | 0.02 µM | 0.1 µM | – | 0.04 µM
Cl.Cl.N[C@H]1CC[C@H](Nc2nc(NC3CCN(C(=O)Oc4ccc([N+](=O)[O-])cc4)CC3)c3ncn(C4CCCC4)c3n2)CC1 [compound 89, trans-4-[2-(4-Amino-cyclohexylamino)-9-cyclopentyl-9H-purin-6-ylamino]-piperidine-1-carboxylic acid 4-nitro-phenyl ester dihydrochloride] | 65 nM | – | – | – | – | 4.7 | – | 42 nM | 0.06 µM | 0.03 µM | 0.07 µM | 0.06 µM | – | 0.01 µM
Cl.Cl.N[C@H]1CC[C@H](Nc2nc(NC3CCN(S(=O)(=O)c4ccc(F)cc4)CC3)c3ncn(C4CCCC4)c3n2)CC1 [compound 106, trans-N^2-(4-Amino-cyclohexyl)-9-cyclopentyl-N^6-[1-(4-fluoro-benzenesulfonyl)-piperidin-4-yl]-9H-purine-2,6-diamine dihydrochloride] | 15 nM | 0.12 µM | 0.22 µM | 0.19 µM | 0.82 µM | 3.0 | 0.13 µM | 8 nM | – | – | – | – | – | –
Cl.Cl.N#Cc1ccc(S(=O)(=O)N2CCC(Nc3nc(N[C@H]4CC[C@H](N)CC4)nc4c3ncn4C3CCCC3)CC2)cc1 [compound 109, trans-N^2-(4-Amino-cyclohexyl)-9-cyclopentyl-N^6-[1-(4-cyano-benzenesulfonyl)-piperidin-4-yl]-9H-purine-2,6-diamine dihydrochloride] | 12 nM | 0.11 µM | 0.25 µM | 0.44 µM | 0.32 µM | 2.4 | 0.18 µM | 45 nM | – | – | – | – | – | –
COC(=O)c1ccccc1S(=O)(=O)N1CCC(Nc2nc(N[C@H]3CC[C@H](N)CC3)nc3c2ncn3C2CCCC2)CC1.Cl.Cl [compound 111, trans-2-{4-[2-(4-Amino-cyclohexylamino)-9-cyclopentyl-9H-purin-6-ylamino]-piperidine-1-sulfonyl}-benzoic acid methyl ester dihydrochloride] | 51 nM | 0.43 µM | 0.28 µM | 1.05 µM | 0.76 µM | 2.2 | 0.09 µM | 9 nM | – | – | – | – | – | –
Cl.Cl.N[C@H]1CC[C@H](Nc2nc(NC3CCN(S(=O)(=O)c4cccc(C(F)(F)F)c4)CC3)c3ncn(C4CCCC4)c3n2)CC1 [compound 112, trans-N^2-(4-Amino-cyclohexyl)-9-cyclopentyl-N^6-[1-(3-trifluoromethyl-benzenesulfonyl)-piperidin-4-yl]-9H-purine-2,6-diamine dihydrochloride] | 224 nM | 0.87 µM | 0.07 µM | 0.11 µM | 0.16 µM | 2.4 | < 0.02 µM | 48 nM | – | – | – | – | – | –
Cl.Cl.N[C@H]1CC[C@H](Nc2nc(NC3CCN(C(=O)Nc4ccc(C(F)(F)F)cc4)CC3)c3ncn(C4CCCC4)c3n2)CC1 [compound 149, trans-4-[2-(4-Amino-cyclohexylamino)-9-cyclopentyl-9H-purin-6-ylamino]-piperidine-1-carboxylic acid (4-trifluoromethyl-phenyl)-amide dihydrochloride] | 91 nM | 0.15 µM | 0.32 µM | 0.22 µM | 0.26 µM | 3.4 | 0.09 µM | 51 nM | – | – | – | – | – | –
